Patent US20160130278A1 (TAISHO PHARMACEUTICAL CO., LTD, priority 2013, published 2016)

Biological target: T1, human type 1 glycine transporter (GlyT1) (Homo sapiens, UniProt P48067)
T1 construct: T98G cells (glioma cells) expressing human type 1 glycine transporter (GlyT1) were used
T1 sequence (P48067 1-706): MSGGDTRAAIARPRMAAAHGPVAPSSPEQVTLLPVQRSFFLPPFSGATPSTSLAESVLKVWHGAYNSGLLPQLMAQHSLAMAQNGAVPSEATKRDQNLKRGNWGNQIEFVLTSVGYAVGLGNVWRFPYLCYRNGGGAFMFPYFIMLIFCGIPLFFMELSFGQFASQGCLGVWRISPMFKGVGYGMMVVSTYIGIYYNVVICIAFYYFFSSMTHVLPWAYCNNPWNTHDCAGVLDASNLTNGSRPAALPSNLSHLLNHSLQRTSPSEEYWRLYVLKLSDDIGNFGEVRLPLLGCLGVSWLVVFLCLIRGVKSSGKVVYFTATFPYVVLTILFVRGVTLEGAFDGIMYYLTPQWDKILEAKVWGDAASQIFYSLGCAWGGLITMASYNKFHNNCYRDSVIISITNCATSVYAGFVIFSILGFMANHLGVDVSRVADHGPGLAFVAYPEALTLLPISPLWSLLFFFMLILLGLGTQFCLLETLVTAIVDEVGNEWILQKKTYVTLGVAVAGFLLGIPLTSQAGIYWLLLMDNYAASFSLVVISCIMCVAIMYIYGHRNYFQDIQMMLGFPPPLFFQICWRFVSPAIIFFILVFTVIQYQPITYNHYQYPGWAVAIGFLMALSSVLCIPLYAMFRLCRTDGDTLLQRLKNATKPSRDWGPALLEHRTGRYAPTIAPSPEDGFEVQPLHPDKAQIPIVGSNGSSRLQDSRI
Assay: Glycine uptake inhibition experiment ([3H]glycine uptake)
Type: cell-based
Details: GlyT1
Procedure, shortened: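 T98G glioma cells expressing human GlyT1 were pretreated 10 min with compound in HEPES buffer pH 7.4 (0.2% BSA), then incubated with compound plus 250 nM final [3H]glycine for 15 min at room temperature. Intracellular radioactivity was counted after NaOH lysis; 10 μM ALX5407 defined non-specific uptake. IC50 came from 10^−9–10^−5 M curves.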

SMILES | IC50 [µM]
O=C(NC(c1ccc(Cl)nc1)[C@]1(O)CC[C@@H](F)CC1)c1nccc(C(F)(F)F)c1Cl (single isomer, unassigned) [Compound 291, 3-chloro-N-[(6-chloropyridin-3-yl)(cis-4-fluoro-1-hydroxycyclohexyl)methyl]-4-(trifluoromethyl)pyridine-2-carboxamide] | 0.89
O=C(NC(c1cccc(F)c1Cl)[C@]1(O)CC[C@@H](F)CC1)c1cc(C(F)(F)F)ccc1Cl (single isomer, unassigned) [Compound 292, 2-chloro-N-[(2-chloro-3-fluorophenyl)(cis-4-fluoro-1-hydroxycyclohexyl)methyl]-5-(trifluoromethyl)benzamide] | 0.12
COc1ccc(Cl)c(C(=O)NC(c2cccc(F)c2Cl)[C@]2(O)CC[C@@H](F)CC2)c1 (single isomer, unassigned) [Compound 293, 2-chloro-N-[(2-chloro-3-fluorophenyl)(cis-4-fluoro-1-hydroxycyclohexyl)methyl]-5-methoxybenzamide] | 0.45
Cc1ccc(Cl)c(C(=O)NC(c2cccc(F)c2Cl)[C@]2(O)CC[C@@H](F)CC2)c1 (single isomer, unassigned) [Compound 294, 2-chloro-N-[(2-chloro-3-fluorophenyl)(cis-4-fluoro-1-hydroxycyclohexyl)methyl]-5-methylbenzamide] | 0.99
O=C(NC(c1cccc(F)c1Cl)[C@]1(O)CC[C@@H](F)CC1)c1cc(F)ccc1Cl (single isomer, unassigned) [Compound 295, 2-chloro-N-[(2-chloro-3-fluorophenyl)(cis-4-fluoro-1-hydroxycyclohexyl)methyl]-5-fluorobenzamide] | 2.1
CS(=O)(=O)c1ccc(Cl)c(C(=O)NC(c2cccc(F)c2Cl)[C@]2(O)CC[C@@H](F)CC2)c1 (single isomer, unassigned) [Compound 296, 2-chloro-N-[(2-chloro-3-fluorophenyl)(cis-4-fluoro-1-hydroxycyclohexyl)methyl]-5-(methylsuflonyl)benzamide] | 3.5
O=C(NC(c1cccc(F)c1Cl)[C@]1(O)CC[C@@H](F)CC1)c1cc(O)ccc1Cl (single isomer, unassigned) [Compound 297, 2-chloro-N-[(2-chloro-3-fluorophenyl)(cis-4-fluoro-1-hydroxycyclohexyl)methyl]-5-hydroxybenzamide] | 1.5
O=C(NC(c1cccc(F)c1Cl)[C@]1(O)CC[C@@H](F)CC1)c1ccc(C(F)(F)F)cc1Cl (single isomer, unassigned) [Compound 298, 2-chloro-N-[(2-chloro-3-fluorophenyl)(cis-4-fluoro-1-hydroxycyclohexyl)methyl]-4-(trifluoromethyl)benzamide] | 0.41
Cc1cccc(Cl)c1C(=O)NC(c1cccc(F)c1Cl)[C@]1(O)CC[C@@H](F)CC1 (single isomer, unassigned) [Compound 299, 2-chloro-N-[(2-chloro-3-fluorophenyl)(cis4-fluoro-1-hydroxycyclohexyl)methyl]-6-methylbenzamide] | 0.61
COc1cccc(Cl)c1C(=O)NC(c1cccc(F)c1Cl)[C@]1(O)CC[C@@H](F)CC1 (single isomer, unassigned) [Compound 300, 2-chloro-N-[(2-chloro-3-fluorophenyl)(cis-4-fluoro-1-hydroxycyclohexyl)methyl]-6-methoxybenzamide] | 1.2
O=C(NC(c1cccc(F)c1Cl)[C@]1(O)CC[C@@H](F)CC1)c1c(F)cccc1Cl (single isomer, unassigned) [Compound 301, 2-chloro-N-[(2-chloro-3-fluorophenyl)(cis-4-fluoro-1-hydroxycyclohexyl)methyl]-6-fluorobenzamide] | 1.1
O=C(NC(c1cccc(F)c1Cl)[C@]1(O)CC[C@@H](F)CC1)c1nccnc1Cl (single isomer, unassigned) [Compound 302, 3-chloro-N-[(2-chloro-3-fluorophenyl)(cis-4-fluoro-1-hydroxycyclohexyl)methyl]pyrazine-2-carboxamide] | 5.5
O=C(NC(c1ncccc1Cl)[C@]1(O)CC[C@@H](F)CC1)c1nccc(C(F)(F)F)c1Cl (single isomer, unassigned) [Compound 303, 3-chloro-N-[(3-chloropyridin-2-yl)(cis-4-fluoro-1-hydroxycyclohexyl)methyl]-4-(trifluoromethyl)pyridine-2-carboxmaide] | 4
O=C(NC(c1cccc(F)c1Cl)[C@]1(O)CC[C@@H](F)CC1)c1ccc(C(F)(F)F)nc1Cl (single isomer, unassigned) [Compound 304, 2-chloro-N-[[2-chloro-3-fluorophenyl)(cis-4-fluoro-1-hydroxycyclohexyl)methyl]-6-(trifluoromethyl)pyridine-3-carboxamide] | 0.29
O=C(NC(c1cccc(F)c1Cl)[C@]1(O)CC[C@@H](F)CC1)c1cc(Cl)nnc1Cl (single isomer, unassigned) [Compound 305, 3,6-dichloro-N-[(2-chloro-3-fluorophenyl)(cis-4-fluoro-1-hydroxycyclohexyl)methyl]pyridazine-4-carboxamide] | 1
O=C(NC(c1cccc(F)c1Cl)[C@]1(O)CC[C@@H](F)CC1)c1c(Cl)cccc1C(F)(F)F (single isomer, unassigned) [Compound 306, 2-chloro-N-[(2-chloro-3-fluorophenyl)(cis-4-fluoro-1-hydroxycyclohexyl)methyl]-6-(trifluoromethyl)benzamide] | 0.67
O=C(NC(c1cccc(F)c1Cl)[C@]1(O)CC[C@@H](F)CC1)c1ccc(F)cc1Cl (single isomer, unassigned) [Compound 307, 2-chloro-N-[(2-chloro-3-fluorophenyl)(cis-4-fluoro-1-hydroxycyclohexyl)methyl]-4-fluorobenzamide] | 1.3
O=C(NC(c1cnccc1Cl)[C@]1(O)CC[C@@H](F)CC1)c1nccc(C(F)(F)F)c1Cl (single isomer, unassigned) [Compound 308, 3-chloro-N-[(4-chloropyridin-3-yl)(cis-4-fluoro-1-hydroxycyclohexyl)methyl]-4-(trifluoromethyl)pyridine-2-carboxamide] | 0.38
O=C(NC(c1cccc(Cl)n1)[C@]1(O)CC[C@@H](F)CC1)c1cc(C(F)(F)F)ncc1Cl (single isomer, unassigned) [Compound 309, 5-chloro-N-[(6-chloropyridin-2-yl)(cis-4-fluoro-1-hydroxycyclohexyl)methyl]-2-(trifluoromethyl)pyridine-4-carboxamide] | 0.55
O=C(NC(c1cccc(Cl)n1)[C@]1(O)CC[C@@H](F)CC1)c1nccc2ccccc12 (single isomer, unassigned) [Compound 310, N-[(6-chloropyridin-2-yl)(cis-4-fluoro-1-hydroxycyclohexyl)methyl]isoquinoline-1-carboxamide] | 0.55
O=C(NC(c1cccc(Cl)n1)C1(O)CCC(F)(F)CC1)c1nccc(C(F)(F)F)c1Cl (single isomer, unassigned) [Compound 311, 3-chloro-N-[(6-chloropyridin-2-yl)(4,4-difluoro-1-hydroxycyclohexyl)methyl]-4-(trifluoromethyl)pyridine-2-carboxamide] | 0.077
O=C(NC(c1cccc(F)c1Cl)[C@]1(O)CC[C@@H](F)CC1)c1cccc(Cl)c1C(F)(F)F (single isomer, unassigned) [Compound 312, 3-chloro-N-[(2-chloro-3-fluorophenyl)(cis-4-fluoro-1-hydroxycyclohexyl)methyl]-2-(trifluoromethyl)benzamide] | 0.89
O=C(NC(c1cccc(F)c1Cl)[C@]1(O)CC[C@@H](F)CC1)c1ccc(Cl)cc1C(F)(F)F (single isomer, unassigned) [Compound 313, 4-chloro-N-[(2-chloro-3-fluorophenyl)(cis-4-fluoro-1-hydroxycyclohexyl)methyl]-2-(trifluoromethyl)benzamide] | 6.4
O=C(NC(c1cccc(F)c1Cl)[C@]1(O)CC[C@@H](F)CC1)c1cc(Cl)ccc1C(F)(F)F (single isomer, unassigned) [Compound 314, 5-chloro-N-[(2-chloro-3-fluorophenyl)(cis-4-fluoro-1-hydroxycyclohexyl)methyl]-2-(trifluoromethyl)benzamide] | 0.42
Cc1ccc(C(F)(F)F)c(C(=O)NC(c2cccc(F)c2Cl)[C@]2(O)CC[C@@H](F)CC2)n1 (single isomer, unassigned) [Compound 315, N-[(2-chloro-3-fluorophenyl)(cis-4-fluoro-1-hydroxycyclohexyl)methyl]-6-methyl-3-(trifluoromethyl)pyridine-2-carboxamide] | 0.82
O=C(NC(c1cccc(F)c1Cl)[C@]1(O)CC[C@@H](F)CC1)c1ncc(Cl)cc1C(F)(F)F (single isomer, unassigned) [Compound 316, 5-chloro-N-[(2-chloro-3-fluorophenyl)(cis-4-fluoro-1-hydroxycyclohexyl)methyl]-3-(trifluoromethyl)pyridine-2-carboxamide] | 5.8
